Results as given in BindingDB's records for doi:10.1124/jpet.106.103382 (Wyeth Research, 2006).

Columns and labels:
Transporter = Transporter (Cavia porcellus, UniProt H0WCX4)
[1] = target: Muscarinic acetylcholine receptor M3 (Homo sapiens, UniProt P20309)
[2] = target: D(3) dopamine receptor (Homo sapiens) (UniProt P35462)
Adenosine receptor A2b = target: T1, Adenosine receptor A2b (Bos taurus, UniProt Q1LZD0)
T1 sequence (Q1LZD0 whole entry): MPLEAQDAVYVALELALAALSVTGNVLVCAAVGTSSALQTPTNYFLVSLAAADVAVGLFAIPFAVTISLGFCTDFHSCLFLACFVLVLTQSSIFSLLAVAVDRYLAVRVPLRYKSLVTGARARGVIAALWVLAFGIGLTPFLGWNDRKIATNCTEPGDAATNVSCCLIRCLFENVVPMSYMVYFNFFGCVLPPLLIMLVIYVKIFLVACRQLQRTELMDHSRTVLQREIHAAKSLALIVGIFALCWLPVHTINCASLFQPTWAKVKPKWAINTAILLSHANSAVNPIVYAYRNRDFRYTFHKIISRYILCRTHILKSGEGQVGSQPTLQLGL

Cannabinoid receptor 1 = Cannabinoid receptor 1 (Homo sapiens, UniProt P21554)
Adenosine receptor A1 = target: T2, Adenosine receptor A1 (Homo sapiens, UniProt P30542)
T2 sequence (P30542 whole entry): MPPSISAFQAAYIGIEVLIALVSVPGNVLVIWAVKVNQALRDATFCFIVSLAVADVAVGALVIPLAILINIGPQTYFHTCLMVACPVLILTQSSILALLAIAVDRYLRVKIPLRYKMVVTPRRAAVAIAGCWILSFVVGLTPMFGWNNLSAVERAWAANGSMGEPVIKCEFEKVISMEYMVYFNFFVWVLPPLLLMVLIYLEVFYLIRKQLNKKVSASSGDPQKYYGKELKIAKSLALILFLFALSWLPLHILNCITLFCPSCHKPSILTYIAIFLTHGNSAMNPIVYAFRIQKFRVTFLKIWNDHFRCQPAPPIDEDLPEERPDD

[3] = target: Histamine H2 receptor (Homo sapiens) (UniProt P25021)
D(1A) dopamine receptor = D(1A) dopamine receptor (Homo sapiens, UniProt P21728)
[4] = target: Histamine H1 receptor (Homo sapiens) (UniProt P35367)
[5] = target: T3, Muscarinic acetylcholine receptor M4 (Homo sapiens, UniProt P08173)
T3 sequence (P08173 whole entry): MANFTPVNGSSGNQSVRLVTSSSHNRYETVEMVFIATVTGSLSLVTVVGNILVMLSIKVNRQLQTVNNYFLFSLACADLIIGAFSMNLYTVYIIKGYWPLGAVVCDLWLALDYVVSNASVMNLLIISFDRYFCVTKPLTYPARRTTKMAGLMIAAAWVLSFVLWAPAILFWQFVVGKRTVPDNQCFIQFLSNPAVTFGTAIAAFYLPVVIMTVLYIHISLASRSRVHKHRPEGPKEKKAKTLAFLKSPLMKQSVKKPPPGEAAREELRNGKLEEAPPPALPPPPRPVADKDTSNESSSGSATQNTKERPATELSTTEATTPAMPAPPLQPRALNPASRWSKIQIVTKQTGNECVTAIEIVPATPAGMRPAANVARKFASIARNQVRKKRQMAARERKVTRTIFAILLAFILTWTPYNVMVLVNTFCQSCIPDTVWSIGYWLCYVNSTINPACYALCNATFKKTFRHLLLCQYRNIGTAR

[6] = target: T4, Muscarinic acetylcholine receptor M2 (Homo sapiens, UniProt P08172)
T4 sequence (P08172 whole entry): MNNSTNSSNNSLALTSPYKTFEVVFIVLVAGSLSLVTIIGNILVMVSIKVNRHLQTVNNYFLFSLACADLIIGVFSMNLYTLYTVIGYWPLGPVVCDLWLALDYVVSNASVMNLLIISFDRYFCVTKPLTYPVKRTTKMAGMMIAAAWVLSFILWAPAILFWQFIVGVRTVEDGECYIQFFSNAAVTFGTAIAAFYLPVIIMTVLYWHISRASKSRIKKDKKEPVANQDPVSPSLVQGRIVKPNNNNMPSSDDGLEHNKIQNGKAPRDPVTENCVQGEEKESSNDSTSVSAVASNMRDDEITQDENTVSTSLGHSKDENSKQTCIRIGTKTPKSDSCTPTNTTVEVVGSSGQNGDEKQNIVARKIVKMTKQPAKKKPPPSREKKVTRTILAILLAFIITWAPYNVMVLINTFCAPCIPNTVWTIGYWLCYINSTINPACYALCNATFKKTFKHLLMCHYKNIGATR

D(2) dopamine receptor = D(2) dopamine receptor (Homo sapiens, UniProt P14416)
[7] = target: T5, Muscarinic acetylcholine receptor M5 (Homo sapiens, UniProt P08912)
T5 sequence (P08912 whole entry): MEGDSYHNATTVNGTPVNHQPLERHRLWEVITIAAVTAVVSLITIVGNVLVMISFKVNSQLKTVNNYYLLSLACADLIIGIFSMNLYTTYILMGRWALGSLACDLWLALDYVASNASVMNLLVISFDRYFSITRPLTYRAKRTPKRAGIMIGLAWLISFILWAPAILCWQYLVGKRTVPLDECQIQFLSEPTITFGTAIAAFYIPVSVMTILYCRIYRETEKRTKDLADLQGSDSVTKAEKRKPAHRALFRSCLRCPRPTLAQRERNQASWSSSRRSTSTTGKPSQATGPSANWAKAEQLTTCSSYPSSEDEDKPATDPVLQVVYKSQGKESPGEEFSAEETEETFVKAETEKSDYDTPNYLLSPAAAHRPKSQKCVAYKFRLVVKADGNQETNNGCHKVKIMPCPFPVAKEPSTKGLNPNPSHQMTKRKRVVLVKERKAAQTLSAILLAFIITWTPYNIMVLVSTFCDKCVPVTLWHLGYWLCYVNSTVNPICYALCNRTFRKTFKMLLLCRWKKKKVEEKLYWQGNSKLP

[8] = target: Histamine H3 receptor (Homo sapiens) (UniProt Q9Y5N1)
[9] = target: T6, Muscarinic acetylcholine receptor M1 (Homo sapiens, UniProt P11229)
T6 sequence (P11229 whole entry): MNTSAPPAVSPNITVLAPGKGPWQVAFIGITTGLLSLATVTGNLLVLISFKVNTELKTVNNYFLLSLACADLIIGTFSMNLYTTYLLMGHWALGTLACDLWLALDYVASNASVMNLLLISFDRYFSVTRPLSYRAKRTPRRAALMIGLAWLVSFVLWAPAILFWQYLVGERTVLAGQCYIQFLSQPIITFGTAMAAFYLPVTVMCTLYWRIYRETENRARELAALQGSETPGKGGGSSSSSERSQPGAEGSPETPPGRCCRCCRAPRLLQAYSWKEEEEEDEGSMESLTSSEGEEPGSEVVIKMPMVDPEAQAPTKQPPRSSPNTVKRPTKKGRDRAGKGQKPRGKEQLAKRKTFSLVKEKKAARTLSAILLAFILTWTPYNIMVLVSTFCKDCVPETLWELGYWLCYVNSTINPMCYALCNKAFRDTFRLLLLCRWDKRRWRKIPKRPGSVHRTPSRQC

Cannabinoid receptor 2 = Cannabinoid receptor 2 (Homo sapiens, UniProt P34972)

Measured: IC50

Histamine H3 receptor (Homo sapiens), sequence (Q9Y5N1 whole entry, looked up): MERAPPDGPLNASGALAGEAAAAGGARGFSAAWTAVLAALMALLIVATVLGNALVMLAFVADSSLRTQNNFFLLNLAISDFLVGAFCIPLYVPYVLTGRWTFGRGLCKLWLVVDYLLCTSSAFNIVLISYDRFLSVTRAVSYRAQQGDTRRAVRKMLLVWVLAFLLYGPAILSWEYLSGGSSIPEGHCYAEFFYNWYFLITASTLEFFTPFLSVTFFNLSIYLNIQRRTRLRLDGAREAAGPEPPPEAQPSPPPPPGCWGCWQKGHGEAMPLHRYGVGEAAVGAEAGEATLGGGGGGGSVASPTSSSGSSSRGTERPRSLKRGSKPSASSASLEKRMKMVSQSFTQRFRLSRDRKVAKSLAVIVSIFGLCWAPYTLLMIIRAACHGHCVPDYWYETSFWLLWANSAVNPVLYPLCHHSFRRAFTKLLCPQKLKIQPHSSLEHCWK
D(1A) dopamine receptor, sequence (P21728 whole entry): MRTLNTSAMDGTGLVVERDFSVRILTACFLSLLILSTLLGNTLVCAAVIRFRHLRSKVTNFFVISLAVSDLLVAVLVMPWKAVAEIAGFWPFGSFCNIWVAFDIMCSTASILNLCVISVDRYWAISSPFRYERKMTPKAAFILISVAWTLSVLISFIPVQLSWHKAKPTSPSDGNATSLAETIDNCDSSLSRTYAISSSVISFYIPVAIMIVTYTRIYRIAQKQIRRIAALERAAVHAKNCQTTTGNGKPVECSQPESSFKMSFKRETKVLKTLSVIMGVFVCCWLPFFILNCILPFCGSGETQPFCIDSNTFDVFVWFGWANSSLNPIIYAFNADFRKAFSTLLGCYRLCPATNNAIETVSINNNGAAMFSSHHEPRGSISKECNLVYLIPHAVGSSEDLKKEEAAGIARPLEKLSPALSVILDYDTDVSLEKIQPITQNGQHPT
Cannabinoid receptor 2, sequence (P34972 whole entry): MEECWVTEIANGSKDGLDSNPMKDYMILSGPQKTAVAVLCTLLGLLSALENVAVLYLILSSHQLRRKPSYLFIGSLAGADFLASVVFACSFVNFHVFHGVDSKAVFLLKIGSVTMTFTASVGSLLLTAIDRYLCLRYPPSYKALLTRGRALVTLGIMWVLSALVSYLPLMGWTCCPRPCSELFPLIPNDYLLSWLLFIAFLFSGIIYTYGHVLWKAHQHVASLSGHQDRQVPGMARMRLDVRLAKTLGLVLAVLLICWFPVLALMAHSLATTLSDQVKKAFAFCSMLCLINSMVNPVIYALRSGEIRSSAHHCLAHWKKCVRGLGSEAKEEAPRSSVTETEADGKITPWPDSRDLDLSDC
D(2) dopamine receptor, sequence (P14416 whole entry): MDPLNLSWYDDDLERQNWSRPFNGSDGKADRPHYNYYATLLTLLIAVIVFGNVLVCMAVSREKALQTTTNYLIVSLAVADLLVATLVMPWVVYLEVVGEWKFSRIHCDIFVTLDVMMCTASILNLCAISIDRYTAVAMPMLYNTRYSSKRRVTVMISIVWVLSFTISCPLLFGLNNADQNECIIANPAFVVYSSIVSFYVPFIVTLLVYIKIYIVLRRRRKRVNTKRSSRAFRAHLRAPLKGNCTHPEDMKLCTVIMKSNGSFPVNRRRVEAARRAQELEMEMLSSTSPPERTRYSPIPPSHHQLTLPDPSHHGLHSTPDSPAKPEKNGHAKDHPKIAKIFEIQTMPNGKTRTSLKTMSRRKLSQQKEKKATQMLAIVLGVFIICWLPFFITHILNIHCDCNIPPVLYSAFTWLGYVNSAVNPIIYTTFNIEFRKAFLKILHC
Muscarinic acetylcholine receptor M3, sequence (P20309 whole entry): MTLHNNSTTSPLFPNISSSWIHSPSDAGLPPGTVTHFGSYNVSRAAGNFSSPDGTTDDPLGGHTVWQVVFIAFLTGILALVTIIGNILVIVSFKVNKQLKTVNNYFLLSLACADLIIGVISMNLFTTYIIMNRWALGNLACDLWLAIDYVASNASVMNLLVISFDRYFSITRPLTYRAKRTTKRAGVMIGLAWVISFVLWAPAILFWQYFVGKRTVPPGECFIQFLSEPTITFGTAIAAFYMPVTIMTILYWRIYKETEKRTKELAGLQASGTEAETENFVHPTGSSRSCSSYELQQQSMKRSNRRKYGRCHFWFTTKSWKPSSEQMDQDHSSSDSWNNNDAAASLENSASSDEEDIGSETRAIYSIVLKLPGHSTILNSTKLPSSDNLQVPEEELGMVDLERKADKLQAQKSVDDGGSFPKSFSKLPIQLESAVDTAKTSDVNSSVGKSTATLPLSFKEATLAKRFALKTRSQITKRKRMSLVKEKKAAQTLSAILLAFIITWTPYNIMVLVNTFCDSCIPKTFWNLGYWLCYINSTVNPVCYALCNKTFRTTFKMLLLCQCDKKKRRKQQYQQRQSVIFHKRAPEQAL
Histamine H1 receptor (Homo sapiens), sequence (P35367 whole entry, looked up): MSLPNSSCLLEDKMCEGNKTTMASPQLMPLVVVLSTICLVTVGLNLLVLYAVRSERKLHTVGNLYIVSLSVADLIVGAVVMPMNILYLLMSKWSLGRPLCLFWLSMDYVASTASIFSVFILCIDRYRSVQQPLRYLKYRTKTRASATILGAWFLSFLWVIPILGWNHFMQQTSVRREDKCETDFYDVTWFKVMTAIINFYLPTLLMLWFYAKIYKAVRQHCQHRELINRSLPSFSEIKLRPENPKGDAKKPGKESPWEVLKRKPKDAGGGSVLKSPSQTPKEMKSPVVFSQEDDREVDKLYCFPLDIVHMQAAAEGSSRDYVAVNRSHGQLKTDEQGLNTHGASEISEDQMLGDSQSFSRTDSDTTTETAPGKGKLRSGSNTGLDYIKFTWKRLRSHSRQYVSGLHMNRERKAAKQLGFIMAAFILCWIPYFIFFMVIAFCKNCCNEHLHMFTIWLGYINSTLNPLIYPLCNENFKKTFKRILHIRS
Histamine H2 receptor (Homo sapiens), sequence (P25021 whole entry, looked up): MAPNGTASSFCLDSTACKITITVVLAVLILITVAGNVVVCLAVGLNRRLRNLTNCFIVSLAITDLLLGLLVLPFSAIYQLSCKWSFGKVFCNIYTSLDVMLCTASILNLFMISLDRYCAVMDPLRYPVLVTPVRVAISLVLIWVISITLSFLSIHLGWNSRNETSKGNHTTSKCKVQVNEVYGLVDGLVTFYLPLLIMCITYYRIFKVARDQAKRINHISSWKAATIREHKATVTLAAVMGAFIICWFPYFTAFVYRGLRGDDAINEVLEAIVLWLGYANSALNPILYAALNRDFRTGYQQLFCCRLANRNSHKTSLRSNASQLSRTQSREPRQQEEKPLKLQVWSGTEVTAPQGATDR
Transporter, sequence (H0WCX4 whole entry): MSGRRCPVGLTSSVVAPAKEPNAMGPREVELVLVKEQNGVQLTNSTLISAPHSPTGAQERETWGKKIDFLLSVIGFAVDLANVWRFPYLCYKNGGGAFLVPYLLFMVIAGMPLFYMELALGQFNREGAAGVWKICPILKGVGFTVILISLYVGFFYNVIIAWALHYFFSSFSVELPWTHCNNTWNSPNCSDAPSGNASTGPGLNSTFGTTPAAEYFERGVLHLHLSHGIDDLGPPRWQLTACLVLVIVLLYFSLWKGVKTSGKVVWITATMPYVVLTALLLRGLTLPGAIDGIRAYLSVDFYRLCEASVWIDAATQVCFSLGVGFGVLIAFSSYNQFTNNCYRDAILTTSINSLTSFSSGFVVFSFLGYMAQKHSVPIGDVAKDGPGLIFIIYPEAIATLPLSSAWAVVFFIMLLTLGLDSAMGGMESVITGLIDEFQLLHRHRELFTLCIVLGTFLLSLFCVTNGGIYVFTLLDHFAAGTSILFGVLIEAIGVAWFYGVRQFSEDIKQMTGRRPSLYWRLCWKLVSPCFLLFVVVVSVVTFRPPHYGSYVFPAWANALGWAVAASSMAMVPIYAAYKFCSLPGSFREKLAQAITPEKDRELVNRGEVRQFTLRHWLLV
Cannabinoid receptor 1, sequence (P21554 whole entry): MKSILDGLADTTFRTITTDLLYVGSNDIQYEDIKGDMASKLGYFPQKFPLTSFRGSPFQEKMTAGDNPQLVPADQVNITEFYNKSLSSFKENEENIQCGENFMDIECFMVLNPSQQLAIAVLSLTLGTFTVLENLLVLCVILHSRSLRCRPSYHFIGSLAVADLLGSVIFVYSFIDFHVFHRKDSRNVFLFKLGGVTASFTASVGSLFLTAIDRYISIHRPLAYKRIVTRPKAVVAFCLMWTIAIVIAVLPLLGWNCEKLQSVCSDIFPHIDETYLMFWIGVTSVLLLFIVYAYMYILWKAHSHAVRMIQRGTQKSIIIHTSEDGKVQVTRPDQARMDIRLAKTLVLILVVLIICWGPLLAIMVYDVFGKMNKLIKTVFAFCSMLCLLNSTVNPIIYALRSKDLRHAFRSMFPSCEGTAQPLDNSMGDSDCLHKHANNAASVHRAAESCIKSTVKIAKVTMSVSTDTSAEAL
D(3) dopamine receptor (Homo sapiens), sequence (P35462 whole entry, looked up): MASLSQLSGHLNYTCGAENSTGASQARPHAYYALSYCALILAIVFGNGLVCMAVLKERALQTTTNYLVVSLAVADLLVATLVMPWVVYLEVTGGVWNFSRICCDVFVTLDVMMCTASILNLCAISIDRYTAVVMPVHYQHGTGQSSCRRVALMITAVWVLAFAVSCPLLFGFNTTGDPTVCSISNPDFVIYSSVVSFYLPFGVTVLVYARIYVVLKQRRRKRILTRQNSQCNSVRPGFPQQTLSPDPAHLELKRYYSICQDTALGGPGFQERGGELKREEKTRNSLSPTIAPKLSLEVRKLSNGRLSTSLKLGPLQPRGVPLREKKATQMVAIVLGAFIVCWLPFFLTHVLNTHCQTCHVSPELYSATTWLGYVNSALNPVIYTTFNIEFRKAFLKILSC

CN(C)CC(c1ccc(O)cc1)C1(O)CCCCC1 (stereo unspecified) [CAS_386750-22-7]
> 10 µM: all assays above
